Each structure is given as a SMILES string.

In one assay the test system is diaphragm. The assay can be described thus: dulcitol (galactitol) accumulation in the diaphragm of galactose-fed (galactosemic) rats. The format is in vivo, rat (Sprague-Dawley). The following applies: 4 days. The source says: (§1) The aldose reductase inhibiting property of the compounds of this invention and the utilization of the compounds in preventing, diminishing and alleviating diabetic complications are demonstrable in experiments using galactosemic rats, see Dvornik et al., Science, 182, 1146 (1973). Such experiments are exemplified hereinbelow after the listing of the following general comments pertaining to these experiments:
(§2) (a) Four or more groups of six male rats, 50-70 g, Sprague-Dawley strain, were used. The first group, the control group, was fed a mixture of laboratory chow (rodent Laboratory Chow, Purina) and glucose at 20% (w/w %) concentration. An untreated galactosemic group was fed a similar diet in which galactose was substituted for glucose. The third group was fed a diet prepared by mixing a given amount of the test compound with the galactose containing diet. The concentration of galactose in the diet of the treated groups was the same as that for the untreated galactosemic group.
(§3) (b) After four days, the animals were killed by euthanization. Both the lens and sciatic nerve were removed, weighed and stored frozen for polyol determination.
(§4) (c) The polyol determination was performed by a modification of the procedure of M. Kraml and L. Cosyns, Clin. Biochem., 2, 373 (1969). Only two minor reagent changes were made: (a) the rinsing mixture was an aqueous 5% (w/v) trichloroacetic acid solution and (b) the stock solution was prepared by dissolving 25 mg of dulcitol in 100 ml of an aqueous trichloroacetic acid solution. [N.B.: For each experiment the average value found in the tissue from rats fed the glucose diet was substracted from the individual values found in the corresponding tissue in galactose-fed rats to obtain the amount of polyol accumulated.] The aldose reductase inhibiting effects of the compounds of formula (I) were also tested by employing an in vitro testing procedure similar to that described by S. Hayman and J. H. Kinoshita, J. Biol. Chem., 240, 877 (1965). In the present case the procedure of Hayman and Kinoshita was modified in that the final chromatography step was omitted in the preparation of the enzyme from bovine lens.
(§5) The figures under L, N, and D represent the percentage decrease of dulcitol accumulation in the tissues of the lens, sciatic nerve, and diaphragm, respectively, for treated rats as compared to untreated rats.

The next assay concerns the target T1, aldose reductase (Bos taurus, UniProt P16116).
T1 construct: preparation of the enzyme from bovine lens; from tissue; host or cells: bovine lens
The assay can be described thus: in vitro aldose reductase inhibition (modified Hayman and Kinoshita procedure, enzyme from bovine lens). As to conditions: for inhibition at 1 µM: 10^-6 M; for inhibition at 10 µM: 10^-5 M. The format is biochemical. How it is done:
as §4

The test system of a further assay is sciatic nerve. The assay can be described thus: dulcitol (galactitol) accumulation in the sciatic nerve of galactose-fed (galactosemic) rats. The following applies: 4 days. The class given is in vivo, rat (Sprague-Dawley).
Description: as §1, §2, §3, §4, §5

The next assay relates to lens. The assay can be described thus: dulcitol (galactitol) accumulation in the lens of galactose-fed (galactosemic) rats. As to conditions: 10.2 mg/kg in diet, 4 days. The class given is in vivo, rat (Sprague-Dawley).
Description: as §1, §2, §3
(c) The polyol determination was performed by a modification of the procedure of M. Kraml and L. Cosyns, Clin. Biochem., 2, 373 (1969). […]

What is called inhibition is the drop in the measured response relative to a control, in per cent. As for `CCN1C(=O)CC2(C1=O)C(=O)N(Cc1nc3cc(C(F)(F)F)ccc3s1)C(=O)c1ccc(F)cc12` (centres unmarked) [R1=F, R4=C2 H5, R5=CF3, 1'-ethyl-6-fluoro-2-[[5-(trifluoromethyl)-2-benzothiazolyl]methyl]spiro[isoquinoline-4(1H),3'-pyrrolidine]-1,2',3,5'(2H)-tetrone], the “% Lowering Galactitol Accumulation In Vivo, (%) D” value in the assay on diaphragm (10 mg/kg/day in diet) worked out at 59%. This compound yielded an inhibition at 1 µM on aldose reductase of 0%.

In the case of `CCN1C(=O)CC2(C1=O)C(=O)N(Cc1ccc(Br)cc1F)C(=O)c1ccc(F)cc12` (centres unmarked) [R1=F, R4=CH2 CH3, 2-[(4-bromo-2-fluorophenyl)methyl]-1'-ethyl-6-fluorospiro[isoquinoline-4(1H),3'-pyrrolidine]-1,2',3,5'(2H)-tetrone], the figures for the “% lowering dulcitol accumulation in vivo, % D” value in the assay with diaphragm (0.5 mg/kg in diet) and in the assay on diaphragm (1.0 mg/kg in diet) were 65% and 84%, respectively. This compound also displayed an inhibition at 10 µM against aldose reductase of 0%. Also, the “% lowering dulcitol accumulation in vivo, % N” value in the assay with sciatic nerve (0.5 mg/kg in diet) is recorded as 19%; in the assay with sciatic nerve (1.0 mg/kg in diet) it was 74%.

Turning to `CCN1C(=O)CC2(C1=O)C(=O)N(Cc1ccc(Br)cc1F)C(=O)c1ccccc12` (centres unmarked) [R1=H, R4=CH2 CH3, 2-[(4-bromo-2-fluorophenyl)methyl]-1'-ethylspiro[isoquinoline-4(1H), 3'-pyrrolidine]-1,2',3,5'(2H)-tetrone], the results for the “% lowering dulcitol accumulation in vivo, % D” value in the assay on diaphragm (0.5 mg/kg in diet) and in the assay on diaphragm (0.9 mg/kg in diet) were 56% and 73%, respectively. The inhibition at 10 µM at aldose reductase amounted to 0%. For the same compound, the “% lowering dulcitol accumulation in vivo, % N” value in the assay with sciatic nerve (0.5 mg/kg in diet) came out at 37%; with sciatic nerve (0.9 mg/kg in diet), 65%.

On to `CN1C(=O)CC2(C1=O)C(=O)N(Cc1ccc(Br)cc1F)C(=O)c1ccccc12` (centres unmarked) [R1=H, R4=CH3, 2-[(4-bromo-2-fluorophenyl)methyl]-1'-methylspiro[isoquinoline-4(1H), 3'-pyrrolidine]-1,2',3,5'(2H)-tetrone], for which the “% lowering dulcitol accumulation in vivo, % D” value in the assay on diaphragm (0.5 mg/kg in diet) came to 61%; in the assay on diaphragm (1.1 mg/kg in diet), 75%; in the assay with diaphragm (10.2 mg/kg in diet), 94%. At aldose reductase, the inhibition at 10 µM turned out to be 0%. The “% lowering dulcitol accumulation in vivo, % L” value in the assay on lens came to 31%. Moreover, the “% lowering dulcitol accumulation in vivo, % N” value with sciatic nerve (0.5 mg/kg in diet) was found to be 50%; in the assay with sciatic nerve (1.1 mg/kg in diet), 76%; with sciatic nerve (10.2 mg/kg in diet), 95%.

For the compound `CN1C(=O)CC2(C1=O)C(=O)N(Cc1nc3cc(C(F)(F)F)ccc3s1)C(=O)c1ccccc12` (centres unmarked) [R1=H, R4=CH3, R5=CF3, 2-[[5-(trifluoromethyl)-2-benzothiazolyl]methyl]-1'-methylspiro[isoquinoline-4(1H),3'-pyrrolidine]-1,2',3,5'(2H)-tetrone], the “% Lowering Galactitol Accumulation In Vivo, (%) D” value with diaphragm (9.5 mg/kg/day in diet) is 100%. This compound displayed an inhibition at 1 µM on aldose reductase of 0%. Moreover, in the assay on sciatic nerve (9.5 mg/kg/day in diet), the “% Lowering Galactitol Accumulation In Vivo, (%) N” value was determined as 82%.
